Where a SMILES comes first, the peptide text is derived from it. Bridges are numbered along the chain shown (N, C = ends). [ ]: non-standard residue; d: D form. The star is where a group is joined. Phe(4-COOH) = N[C@@H](Cc1ccc(C(=O)O)cc1)C(=O)O; Bip = N[C@@H](Cc1ccc(-c2ccccc2)cc1)C(=O)O; Phe(3-Me) = Cc1cccc(C[C@H](N)C(=O)O)c1; 4Pal = N[C@@H](Cc1ccncc1)C(=O)O; Cha = N[C@@H](CC1CCCCC1)C(=O)O; Cit = NC(=O)NCCC[C@H](N)C(=O)O; dCha = N[C@H](CC1CCCCC1)C(=O)O; Carboxymethyl = O=C(O)C*; Orn = NCCC[C@H](N)C(=O)O; Dab = NCC[C@H](N)C(=O)O; Dap = NC[C@H](N)C(=O)O
target: T1, human PD-1 / PD-L1-Ig binding on Jurkat cell line over-expressing human PD-1 (Jurkat-PD-1) (Homo sapiens, UniProt Q15116); experiment: Jurkat-PD-1 Cell Binding High-Content Screening Assay (CBA); type: cell-based; conditions: Jurkat-PD-1 cells, PE-labeled PD-L1-Ig 20 nM final; read-out: Jurkat HPD1_PDL1 IC50
T1 construct: expressed in transfected cells; host or cells: Jurkat
Outline: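 Jurkat cells over-expressing human PD-1, in DMEM/10% FCS, pre-incubated with compound 2 h at 37° C. PE-labeled human PD-L1-Ig (20 nM final) added for 1 h; cells fixed in paraformaldehyde with Hoechst 33342 nuclear stain, washed, and bound fluorescence quantified by high-content imaging.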

T1 sequence (Q15116 25-288): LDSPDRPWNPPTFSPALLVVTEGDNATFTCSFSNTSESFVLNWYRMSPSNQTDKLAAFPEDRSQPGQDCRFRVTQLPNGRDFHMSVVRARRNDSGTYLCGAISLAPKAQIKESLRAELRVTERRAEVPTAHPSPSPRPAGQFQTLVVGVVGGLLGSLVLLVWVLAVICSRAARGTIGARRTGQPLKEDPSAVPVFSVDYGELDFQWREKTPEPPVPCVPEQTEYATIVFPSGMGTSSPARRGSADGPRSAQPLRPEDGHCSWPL

| SMILES | IC50 |
| --- | --- |
| CC(C)[C@@H]1NC(=O)[C@H](Cc2c[nH]c3ccccc23)NC(=O)[C@H](CC(=O)O)NC(=O)[C@H](Cc2ccc(OCC(=O)O)cc2)NC(=O)[C@H](CN)NC(=O)CSC[C@@H](C(=O)N[C@@H](C)C(N)=O)NC(=O)[C@H]([C@@H](C)O)NC(=O)[C@H](C(C)C)NC(=O)[C@H](CC2CCCCC2)NC(=O)[C@H](CCN)NC(=O)[C@@H](CC2CCCCC2)NC(=O)[C@H](CCCN)NC(=O)[C@H](C(C)C)NC(=O)[C@H](Cc2ccc(-c3ccccc3)cc2)NC1=O [Compound 1635] ({CH2CO}-[Dap]Y(Carboxymethyl)DWV[Bip]V[Orn][dCha][Dab][Cha]VTCA-NH2; thioether N-14) | 18.1 nM |
| CC(C)[C@@H]1NC(=O)[C@H](Cc2c[nH]c3ccccc23)NC(=O)[C@H](CC(=O)O)NC(=O)[C@H](Cc2ccc(OCC(=O)O)cc2)NC(=O)[C@H](Cc2ccncc2)NC(=O)CSC[C@@H](C(=O)N[C@@H](C)C(N)=O)NC(=O)[C@H]([C@@H](C)O)NC(=O)[C@H](C(C)C)NC(=O)[C@H](CC2CCCCC2)NC(=O)[C@H](CCN)NC(=O)[C@@H](CC2CCCCC2)NC(=O)[C@H](CCCN)NC(=O)[C@H](C(C)C)NC(=O)[C@H](Cc2ccc(-c3ccccc3)cc2)NC1=O [Compound 1636] ({CH2CO}-[4Pal]Y(Carboxymethyl)DWV[Bip]V[Orn][dCha][Dab][Cha]VTCA-NH2; thioether N-14) | 19.7 nM |
| CC(C)[C@@H]1NC(=O)[C@H](Cc2c[nH]c3ccccc23)NC(=O)[C@H](CC(=O)O)NC(=O)[C@H](Cc2ccncc2)NC(=O)[C@H](Cc2ccc(OCC(=O)O)cc2)NC(=O)CSC[C@@H](C(=O)N[C@@H](C)C(N)=O)NC(=O)[C@H]([C@@H](C)O)NC(=O)[C@H](C(C)C)NC(=O)[C@H](CC2CCCCC2)NC(=O)[C@H](CCN)NC(=O)[C@@H](CC2CCCCC2)NC(=O)[C@H](CCCN)NC(=O)[C@H](C(C)C)NC(=O)[C@H](Cc2ccc(-c3ccccc3)cc2)NC1=O [Compound 1637] ({CH2CO}-Y(Carboxymethyl)[4Pal]DWV[Bip]V[Orn][dCha][Dab][Cha]VTCA-NH2; thioether N-14) | 32.7 nM |
| CC(C)[C@@H]1NC(=O)[C@H](Cc2c[nH]c3ccccc23)NC(=O)[C@H](CC(=O)O)NC(=O)[C@H](Cc2ccncc2)NC(=O)[C@H](CN)NC(=O)CSC[C@@H](C(=O)N[C@@H](C)C(N)=O)NC(=O)[C@H]([C@@H](C)O)NC(=O)[C@H](C(C)C)NC(=O)[C@H](CC2CCCCC2)NC(=O)[C@H](CCN)NC(=O)[C@@H](CC2CCCCC2)NC(=O)[C@H](CCCN)NC(=O)[C@H](C(C)C)NC(=O)[C@H](Cc2ccc(-c3ccccc3)cc2)NC1=O [Compound 1638] ({CH2CO}-[Dap][4Pal]DWV[Bip]V[Orn][dCha][Dab][Cha]VTCA-NH2; thioether N-14) | 28.6 nM |
| CC(C)[C@@H]1NC(=O)[C@H](Cc2c[nH]c3ccccc23)NC(=O)[C@H](CC(=O)O)NC(=O)[C@H](Cc2ccc(OCC(=O)O)cc2)NC(=O)[C@H](Cc2ccc(OCC(=O)O)cc2)NC(=O)CSC[C@@H](C(=O)N[C@@H](C)C(N)=O)NC(=O)[C@H]([C@@H](C)O)NC(=O)[C@H](C(C)C)NC(=O)[C@H](CC2CCCCC2)NC(=O)[C@H](CCN)NC(=O)[C@@H](CC2CCCCC2)NC(=O)[C@H](CCCN)NC(=O)[C@H](CCCNC(N)=O)NC(=O)[C@H](Cc2ccc(-c3ccccc3)cc2)NC1=O [Compound 1641] ({CH2CO}-Y(Carboxymethyl)Y(Carboxymethyl)DWV[Bip][Cit][Orn][dCha][Dab][Cha]VTCA-NH2; thioether N-14) | 37.1 nM |
| CC(C)[C@@H]1NC(=O)[C@H](Cc2c[nH]c3ccccc23)NC(=O)[C@H](CC(=O)O)NC(=O)[C@H](Cc2ccc(C(=O)O)cc2)NC(=O)[C@H](Cc2ccc(OCC(=O)O)cc2)NC(=O)CSC[C@@H](C(=O)N[C@@H](C)C(N)=O)NC(=O)[C@H]([C@@H](C)O)NC(=O)[C@H](C(C)C)NC(=O)[C@H](CC2CCCCC2)NC(=O)[C@H](CCN)NC(=O)[C@@H](CC2CCCCC2)NC(=O)[C@H](CCCN)NC(=O)[C@H](CCCNC(N)=O)NC(=O)[C@H](Cc2ccc(-c3ccccc3)cc2)NC1=O [Compound 1642] ({CH2CO}-Y(Carboxymethyl)[Phe(4-COOH)]DWV[Bip][Cit][Orn][dCha][Dab][Cha]VTCA-NH2; thioether N-14) | 30.4 nM |
| CC(C)[C@@H]1NC(=O)[C@H](Cc2c[nH]c3ccccc23)NC(=O)[C@H](CC(=O)O)NC(=O)[C@H](Cc2ccc(OCC(=O)O)cc2)NC(=O)[C@H](Cc2ccncc2)NC(=O)CSC[C@@H](C(=O)N[C@@H](C)C(N)=O)NC(=O)[C@H]([C@@H](C)O)NC(=O)[C@H](C(C)C)NC(=O)[C@H](CC2CCCCC2)NC(=O)[C@H](CCN)NC(=O)[C@@H](CC2CCCCC2)NC(=O)[C@H](CCCN)NC(=O)[C@H](CCCNC(N)=O)NC(=O)[C@H](Cc2ccc(-c3ccccc3)cc2)NC1=O [Compound 1644] ({CH2CO}-[4Pal]Y(Carboxymethyl)DWV[Bip][Cit][Orn][dCha][Dab][Cha]VTCA-NH2; thioether N-14) | 16.7 nM |
| CC(C)[C@@H]1NC(=O)[C@H](Cc2c[nH]c3ccccc23)NC(=O)[C@H](CC(=O)O)NC(=O)[C@H](Cc2ccncc2)NC(=O)[C@H](Cc2ccc(OCC(=O)O)cc2)NC(=O)CSC[C@@H](C(=O)N[C@@H](C)C(N)=O)NC(=O)[C@H]([C@@H](C)O)NC(=O)[C@H](C(C)C)NC(=O)[C@H](CC2CCCCC2)NC(=O)[C@H](CCN)NC(=O)[C@@H](CC2CCCCC2)NC(=O)[C@H](CCCN)NC(=O)[C@H](CCCNC(N)=O)NC(=O)[C@H](Cc2ccc(-c3ccccc3)cc2)NC1=O [Compound 1645] ({CH2CO}-Y(Carboxymethyl)[4Pal]DWV[Bip][Cit][Orn][dCha][Dab][Cha]VTCA-NH2; thioether N-14) | 20.3 nM |
| Cc1cccc(C[C@@H]2NC(=O)[C@H](CC(=O)O)NC(=O)[C@H](Cc3ccc(O)cc3)NC(=O)[C@H](CC(N)=O)NC(=O)CSC[C@@H](C(N)=O)NC(=O)[C@H]([C@@H](C)O)NC(=O)[C@H](C(C)C)NC(=O)[C@H](CC(C)C)NC(=O)[C@H](CCN)NC(=O)[C@@H](CC(C)C)NC(=O)[C@H](CCCN)NC(=O)[C@H](C(C)C)NC(=O)[C@H](Cc3ccc(-c4ccccc4)cc3)NC(=O)[C@H](C(C)C)NC2=O)c1 [Compound 1648] ({CH2CO}-NYD[Phe(3-Me)]V[Bip]V[Orn][dL][Dab]LVTC-NH2; thioether N-14) | 97 nM |

Now from value to molecule:

| IC50 | SMILES |
| --- | --- |
| 35.8 nM | CC(C)[C@@H]1NC(=O)[C@H](Cc2c[nH]c3ccccc23)NC(=O)[C@H](CC(=O)O)NC(=O)[C@H](Cc2ccc(O)cc2)NC(=O)[C@H](CC(N)=O)NC(=O)CSC[C@@H](C(=O)N[C@@H](C)C(N)=O)NC(=O)[C@H]([C@@H](C)O)NC(=O)[C@H](C(C)C)NC(=O)[C@H](CC2CCCCC2)NC(=O)[C@H](CCN)NC(=O)[C@@H](CC2CCCCC2)NC(=O)[C@H](CCCN)NC(=O)[C@H](C(C)C)NC(=O)[C@H](Cc2ccc(-c3ccccc3)cc2)NC1=O [Compound 1639] ({CH2CO}-NYDWV[Bip]V[Orn][dCha][Dab][Cha]VTCA-NH2; thioether N-14) |
| 25.7 nM | CC(C)[C@@H]1NC(=O)[C@H](Cc2c[nH]c3ccccc23)NC(=O)[C@H](CC(=O)O)NC(=O)[C@H](Cc2ccc(C(=O)O)cc2)NC(=O)[C@H](Cc2ccncc2)NC(=O)CSC[C@@H](C(=O)N[C@@H](C)C(N)=O)NC(=O)[C@H]([C@@H](C)O)NC(=O)[C@H](C(C)C)NC(=O)[C@H](CC2CCCCC2)NC(=O)[C@H](CCN)NC(=O)[C@@H](CC2CCCCC2)NC(=O)[C@H](CCCN)NC(=O)[C@H](CCCNC(N)=O)NC(=O)[C@H](Cc2ccc(-c3ccccc3)cc2)NC1=O [Compound 1640] ({CH2CO}-[4Pal][Phe(4-COOH)]DWV[Bip][Cit][Orn][dCha][Dab][Cha]VTCA-NH2; thioether N-14) |
| 14.5 nM | CC(C)[C@@H]1NC(=O)[C@H](Cc2c[nH]c3ccccc23)NC(=O)[C@H](CC(=O)O)NC(=O)[C@H](Cc2ccc(OCC(=O)O)cc2)NC(=O)[C@H](CN)NC(=O)CSC[C@@H](C(=O)N[C@@H](C)C(N)=O)NC(=O)[C@H]([C@@H](C)O)NC(=O)[C@H](C(C)C)NC(=O)[C@H](CC2CCCCC2)NC(=O)[C@H](CCN)NC(=O)[C@@H](CC2CCCCC2)NC(=O)[C@H](CCCN)NC(=O)[C@H](CCCNC(N)=O)NC(=O)[C@H](Cc2ccc(-c3ccccc3)cc2)NC1=O [Compound 1643] ({CH2CO}-[Dap]Y(Carboxymethyl)DWV[Bip][Cit][Orn][dCha][Dab][Cha]VTCA-NH2; thioether N-14) |
| 28.1 nM | CC(C)[C@@H]1NC(=O)[C@H](Cc2c[nH]c3ccccc23)NC(=O)[C@H](CC(=O)O)NC(=O)[C@H](Cc2ccncc2)NC(=O)[C@H](CN)NC(=O)CSC[C@@H](C(=O)N[C@@H](C)C(N)=O)NC(=O)[C@H]([C@@H](C)O)NC(=O)[C@H](C(C)C)NC(=O)[C@H](CC2CCCCC2)NC(=O)[C@H](CCN)NC(=O)[C@@H](CC2CCCCC2)NC(=O)[C@H](CCCN)NC(=O)[C@H](CCCNC(N)=O)NC(=O)[C@H](Cc2ccc(-c3ccccc3)cc2)NC1=O [Compound 1646] ({CH2CO}-[Dap][4Pal]DWV[Bip][Cit][Orn][dCha][Dab][Cha]VTCA-NH2; thioether N-14) |
| 50.9 nM | CC(C)[C@@H]1NC(=O)[C@H](Cc2c[nH]c3ccccc23)NC(=O)[C@H](CC(=O)O)NC(=O)[C@H](Cc2ccc(O)cc2)NC(=O)[C@H](CC(N)=O)NC(=O)CSC[C@@H](C(=O)N[C@@H](C)C(N)=O)NC(=O)[C@H]([C@@H](C)O)NC(=O)[C@H](C(C)C)NC(=O)[C@H](CC2CCCCC2)NC(=O)[C@H](CCN)NC(=O)[C@@H](CC2CCCCC2)NC(=O)[C@H](CCCN)NC(=O)[C@H](CCCNC(N)=O)NC(=O)[C@H](Cc2ccc(-c3ccccc3)cc2)NC1=O [Compound 1647] ({CH2CO}-NYDWV[Bip][Cit][Orn][dCha][Dab][Cha]VTCA-NH2; thioether N-14) |

From patent publication US20250163104A1, “MACROCYCLIC IMMUNOMODULATORS” (priority 2021, published 2025)
